The source of these data is PubChem BioAssay (NCI).

Common to all, as to test: NCI-60 cell line screen, 48 h
Assay [1] deals with BT-549 breast.
Assay [2] relates to DMS 273 small cell lung.
Assay [3] has as its system HCT-116 colon.
The test system of assay [4] is HCT-15 colon.
In assay [5] the test system is K-562 leukemia.
The test system of assay [6] is KM12 colon.
Assay [7] relates to LXFL 529 NSCLC.
Assay [8] deals with M19-MEL melanoma.
Assay [9] has as its system NCI-H522 lung.
Assay [10] has as its system RXF 393 renal.
In assay [11] the test system is SNB-78 CNS.
The subject of assay [12] is SW-620 colon.

Each structure is given as a SMILES string.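 Results reflect a 48-hour exposure of cells in 96-well plates to compound at five concentrations. TGI is the concentration that stops growth completely.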 Bounds are passed on as bounds.

`CC(=O)O[C@H]1C(=O)[C@@]2(C)C(C(OC(=O)c3ccccc3)[C@]3(O)C[C@H](OC(=O)C(OC(=O)CCCC(=O)NCCCN(C)C)C(NC(=O)c4ccccc4)c4ccccc4)C(C)=C1C3(C)C)C1(OC(C)=O)COC1C[C@@H]2O` (some centres not stated): the TGI stood at 31.9 µM in assay [1]; 0.553 µM in assay [2]; 1.53 µM in assay [3]; 19.2 µM in assay [4]; 45.4 µM in assay [5]; 3.19 µM in assay [6]. In addition, the TGI was 20.9 µM in assay [7]; 17.3 µM in assay [8]; under 0.0105 µM in assay [9]; 3.27 µM in [10]; 96.8 µM in assay [11]; 22.4 µM in [12].
